Test system: primary human T-cells
Assay: Proliferation assay after 5 days (CellTiter-Glo, CD3 stimulation; PBS counter screen)
Type: cell-based
Settings: Homo sapiens, T-cell, 120 h, CD3 stimulation; for Emax: 5 days, normalized to reference compound A1 as stimulator control = 100%, DMSO neutral control, read-out: Emax proliferation (% activation); for EC50: primary human T-cells, CellTiter-Glo after 5 days, EC50 of fitted sigmoidal curve, read-out: Tcell Proliferation CD3 EC50
Description: Compounds are then added (see next section) to medium only plates.
Cells are assessed for proliferation 5 days later by measuring […] using CellTiterGlo (Promega).
After 5 days, for detection of ATP which is directly proportional to the number of cells present per well, the CellTiter-Glo® 2.0 Reagent is used. After visual control for toxicity or precipitations of the tested compounds, the plates are equilibrated to room temperature for 45 minutes. CellTiter-Glo® 2.0 Reagent is equilibrated to room temperature as well. After equilibration, an equal amount of CellTiter-Glo reagent is added to the cells (80 μl/well) with an electronic multichannel pipette. Plates are placed on a rocking platform for 15 minutes at room temperature. After incubation, the bottom of the plates is sealed with backing tape. Luminescence is measured with PHERAstar FSX (interval time 0.5 sec, gain 3000, focal height 15 mm) and exported as CSV file for analysis in Genedata screener.
Compounds which activate unstimulated cells (see IL2 measurements) or compounds which negatively affected viability were flagged.

Compound	Emax	EC50
CCc1cn(-c2cc3c(cc2F)SC[C@H](N)C(=O)N3Cc2ccc(Cl)cc2)nn1 [Example 1, (3R)-3-amino-5-[(4-chlorophenyl)methyl]-7-(4-ethyltriazol-1-yl)-8-fluoro-2,3-dihydro-1,5-benzothiazepin-4-one]	33%	> 20000 nM
N[C@H]1CSc2cc(F)c(-n3cc(Cc4ccc(Cl)cc4)nn3)cc2N(Cc2ccc(Cl)cc2)C1=O [Example 2, (3R)-3-amino-5-[(4-chlorophenyl)methyl]-7-[4-[(4-chlorophenyl)methyl]triazol-1-yl]-8-fluoro-2,3-dihydro-1,5-benzothiazepin-4-one]	34%	> 20000 nM
N[C@H]1CS(=O)(=O)c2cc(F)c(-n3cc(Cc4ccc(Cl)cc4)nn3)cc2N(Cc2ccc(Cl)cc2)C1=O [Example 4, (3R)-3-amino-5-[(4-chlorophenyl)methyl]-7-[4-[(4-chlorophenyl)methyl]triazol-1-yl]-8-fluoro-1,1-dioxo-2,3-dihydro-1λ^6,5-benzothiazepin-4-one]	168%	1050 nM
CCn1nnc(-c2cc3c(cc2F)S(=O)(=O)C[C@H](N)C(=O)N3Cc2ccc(Cl)cc2)n1 [Example 7, (3R)-3-amino-5-[(4-chlorophenyl)methyl]-7-(2-ethyltetrazol-5-yl)-8-fluoro-1,1-dioxo-2,3-dihydro-1λ^6,5-benzothiazepin-4-one]	264%	2750 nM
N[C@H]1CS(=O)(=O)c2cc(F)c(-c3nc(C4CC4)no3)cc2N(Cc2ccc(Cl)cc2)C1=O [Example 40, (3R)-3-amino-5-[(4-chlorophenyl)methyl]-7-(3-cyclopropyl-1,2,4-oxadiazol-5-yl)-8-fluoro-1,1-dioxo-2,3-dihydro-1λ^6,5-benzothiazepin-4-one]	34%	> 20000 nM
CCCc1noc(-c2cc3c(cc2F)S(=O)(=O)C[C@H](N)C(=O)N3Cc2ccc(Cl)cc2)n1 [Example 42, (3R)-3-Amino-5-[(4-chlorophenyl)methyl]-8-fluoro-1,1-dioxo-7-(3-propyl-1,2,4-oxadiazol-5-yl)-2,3-dihydro-1λ^6,5-benzothiazepin-4-one]	80%	1310 nM
N[C@H]1CS(=O)(=O)c2cc(F)c(-c3nc(Cc4ccc(Cl)cc4)no3)cc2N(Cc2ccc(Cl)cc2)C1=O [Example 44, (3R)-3-Amino-5-[(4-chlorophenyl)methyl]-7-[3-[(4-chlorophenyl)methyl]-1,2,4-oxadiazol-5-yl]-8-fluoro-1,1-dioxo-2,3-dihydro-1λ^6,5-benzothiazepin-4-one]	122%	702 nM
N[C@H]1CS(=O)(=O)c2cc(F)c(-c3nc(COCc4ccccc4)no3)cc2N(Cc2ccc(Cl)cc2)C1=O [Example 45, (3R)-3-Amino-7-[3-(benzyloxymethyl)-1,2,4-oxadiazol-5-yl]-5-[(4-chlorophenyl)methyl]-8-fluoro-1,1-dioxo-2,3-dihydro-1λ^6,5-benzothiazepin-4-one]	80%	1970 nM
NCc1noc(-c2cc3c(cc2F)S(=O)(=O)C[C@H](N)C(=O)N3Cc2ccc(Cl)cc2)n1 [Example 50, (3R)-3-amino-7--[3-(aminomethyl)-1,2,4-oxadiazol-5-yl]-5-[(4-chlorophenyl)methyl]-8-fluoro-1,1-dioxo-2,3-dihydro-1λ^6,5-benzothiazepin-4-one]	40%	> 20000 nM
CCc1noc(-c2ccc3c(c2)N(Cc2ccc(Cl)cc2)C(=O)[C@@H](N)CS3(=O)=O)n1 [Example 51, (3R)-3-amino-5-[(4-chlorophenyl)methyl]-7-(3-ethyl-1,2,4-oxadiazol-5-yl)-1,1-dioxo-2,3-dihydro-1λ^6,5-benzothiazepin-4-one]	94%	2690 nM
N[C@H]1CS(=O)(=O)c2cc(F)c(-c3nnc(CCCC(F)(F)F)o3)cc2N(Cc2ccc(Cl)cc2)C1=O [Example 79, (3R)-3-Amino-5-[(4-chlorophenyl)methyl]-8-fluoro-1,1-dioxo-7-[5-(4,4,4-trifluorobutyl)-1,3,4-oxadiazol-2-yl]-2,3-dihydro-1λ^6,5-benzothiazepin-4-one]	154%	173 nM
